How the values were obtained:
Type in all cases: cell-based, human
HOP-62 = test: NCI60 screening, Non-Small Cell Lung Cancer, HOP-62
NCI-H23 = test: NCI60 screening, Non-Small Cell Lung Cancer, NCI-H23
COLO 205 = test: NCI60 screening, Colon Cancer, COLO 205
HCT-116 = test: NCI60 screening, Colon Cancer, HCT-116
NCI-H322M = test: NCI60 screening, Non-Small Cell Lung Cancer, NCI-H322M
DU-145 = test: NCI60 screening, Prostate Cancer, DU-145
OVCAR-3 = test: NCI60 screening, Ovarian Cancer, OVCAR-3
OVCAR-5 = test: NCI60 screening, Ovarian Cancer, OVCAR-5
SN12C = test: NCI60 screening, Renal Cancer, SN12C
[1] = Homo sapiens, read-out: LC50 (the source's name)

Cc1ccc2c(c1)c(CO)cn2S(=O)(=O)c1ccc(Cl)c([N+](=O)[O-])c1 [OSU-A9M, [1-(4-chloro-3-nitro-benzenesulfonyl)-5-methyl-1H-indol-3-yl]-methanol]
Percent Growth (HOP-62; Log10 Concentration −4.0): −99%
Percent Growth (HOP-62; Log10 Concentration −5.0): −100%
Percent Growth (HOP-62; Log10 Concentration −6.0): 97%
Percent Growth (HOP-62; Log10 Concentration −7.0): 95%
Percent Growth (HOP-62; Log10 Concentration −8.0): 98%
TGI (NCI-H23): 2.89E−6
GI50 (NCI-H23; Homo sapiens): 1530 nM
CC50 (NCI-H23; [1]): 5460 nM
Percent Growth (NCI-H23; Log10 Concentration −4.0): −96%
Percent Growth (NCI-H23; Log10 Concentration −5.0): −97%
Percent Growth (NCI-H23; Log10 Concentration −6.0): 83%
Percent Growth (NCI-H23; Log10 Concentration −7.0): 90%
Percent Growth (NCI-H23; Log10 Concentration −8.0): 92%
TGI (COLO 205): 3.14E−6
GI50 (COLO 205; Homo sapiens): 1700 nM
CC50 (COLO 205; [1]): 5790 nM
Percent Growth (COLO 205; Log10 Concentration −4.0): −87%
Percent Growth (COLO 205; Log10 Concentration −5.0): −95%
Percent Growth (COLO 205; Log10 Concentration −6.0): 93%
Percent Growth (COLO 205; Log10 Concentration −7.0): 92%
Percent Growth (COLO 205; Log10 Concentration −8.0): 98%
TGI (HCT-116): 1.57E−6
GI50 (HCT-116; Homo sapiens): 461 nM
LC50 (HCT-116; Homo sapiens): 3970 nM
Percent Growth (HCT-116; Log10 Concentration −4.0): −100%
Percent Growth (HCT-116; Log10 Concentration −5.0): −100%
Percent Growth (HCT-116; Log10 Concentration −6.0): 24%
Percent Growth (HCT-116; Log10 Concentration −7.0): 100%
Percent Growth (HCT-116; Log10 Concentration −8.0): 101%
TGI (NCI-H322M): 3.10E−6
GI50 (NCI-H322M; Homo sapiens): 1680 nM
LC50 (NCI-H322M; Homo sapiens): 5710 nM
Percent Growth (NCI-H322M; Log10 Concentration −4.0): −93%
Percent Growth (NCI-H322M; Log10 Concentration −5.0): −96%
Percent Growth (NCI-H322M; Log10 Concentration −6.0): 93%
Percent Growth (NCI-H322M; Log10 Concentration −7.0): 89%
Percent Growth (NCI-H322M; Log10 Concentration −8.0): 91%
TGI (DU-145): 3.04E−6
GI50 (DU-145; Homo sapiens): 1670 nM
CC50 (DU-145; [1]): 5510 nM
Percent Growth (DU-145; Log10 Concentration −4.0): −100%
Percent Growth (DU-145; Log10 Concentration −5.0): −100%
Percent Growth (DU-145; Log10 Concentration −6.0): 93%
Percent Growth (DU-145; Log10 Concentration −7.0): 95%
Percent Growth (DU-145; Log10 Concentration −8.0): 103%
TGI (OVCAR-3): 4.90E−7
GI50 (OVCAR-3; Homo sapiens): 225 nM
CC50 (OVCAR-3; [1]): 1190 nM
Percent Growth (OVCAR-3; Log10 Concentration −4.0): −100%
Percent Growth (OVCAR-3; Log10 Concentration −5.0): −100%
Percent Growth (OVCAR-3; Log10 Concentration −6.0): −46%
Percent Growth (OVCAR-3; Log10 Concentration −7.0): 102%
Percent Growth (OVCAR-3; Log10 Concentration −8.0): 100%
TGI (OVCAR-5): 3.04E−6
GI50 (OVCAR-5; Homo sapiens): 1680 nM
CC50 (OVCAR-5; [1]): 5510 nM
Percent Growth (OVCAR-5; Log10 Concentration −4.0): −100%
Percent Growth (OVCAR-5; Log10 Concentration −5.0): −100%
Percent Growth (OVCAR-5; Log10 Concentration −6.0): 93%
Percent Growth (OVCAR-5; Log10 Concentration −7.0): 92%
Percent Growth (OVCAR-5; Log10 Concentration −8.0): 95%
TGI (SN12C): 2.99E−6
GI50 (SN12C; Homo sapiens): 1410 nM
CC50 (SN12C; [1]): 6310 nM
Percent Growth (SN12C; Log10 Concentration −4.0): −88%
Percent Growth (SN12C; Log10 Concentration −5.0): −81%
Percent Growth (SN12C; Log10 Concentration −6.0): 73%
Percent Growth (SN12C; Log10 Concentration −7.0): 92%
Percent Growth (SN12C; Log10 Concentration −8.0): 68%
